Assay [1] concerns the target T1, MC4 (Homo sapiens, UniProt P32245). Description: Test 2. Affinity for the MC4-receptors (I125-NDP-αMSH binding). As to conditions: I125-NDP-αMSH as ligand; read-out: Affinity for MC-receptors Ki MC4. The procedure: (§1) Test 2. Affinity for the MC3-receptors, the MC4-receptors and the MC5-receptors
(§2) The binding assays were carried out essentially as described by Szardenings et al, J Biol Chem 1997; 272; 27943-27948 and Schiöth et al, FEBS Lett 1997; 410; 223-228 using I125-NDP-αMSH as ligand.

For assay [2], the target named is T2, MC5 (Homo sapiens, UniProt P33032). Description: Test 2. Affinity for the MC5-receptors (I125-NDP-αMSH binding). Conditions: I125-NDP-αMSH as ligand; read-out: Affinity for MC-receptors Ki MC5. On the procedure: as §1, §2
T2 sequence (P33032 whole entry): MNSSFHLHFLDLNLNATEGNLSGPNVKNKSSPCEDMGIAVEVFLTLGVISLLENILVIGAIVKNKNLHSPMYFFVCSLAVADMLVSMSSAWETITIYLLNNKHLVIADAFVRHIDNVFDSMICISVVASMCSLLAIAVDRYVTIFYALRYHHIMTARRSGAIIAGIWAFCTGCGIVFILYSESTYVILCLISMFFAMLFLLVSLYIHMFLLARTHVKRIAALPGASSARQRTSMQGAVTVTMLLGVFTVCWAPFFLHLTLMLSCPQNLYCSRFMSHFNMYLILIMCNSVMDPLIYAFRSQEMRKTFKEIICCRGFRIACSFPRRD
The target in assay [3] is T3, MC3 (Homo sapiens, UniProt P41968). Kind of assay: Test 2. Affinity for the MC3-receptors (I125-NDP-αMSH binding). Conditions: I125-NDP-αMSH as ligand; read-out: Affinity for MC-receptors Ki MC3. The procedure: as §1, §2
T3 sequence (P41968 whole entry): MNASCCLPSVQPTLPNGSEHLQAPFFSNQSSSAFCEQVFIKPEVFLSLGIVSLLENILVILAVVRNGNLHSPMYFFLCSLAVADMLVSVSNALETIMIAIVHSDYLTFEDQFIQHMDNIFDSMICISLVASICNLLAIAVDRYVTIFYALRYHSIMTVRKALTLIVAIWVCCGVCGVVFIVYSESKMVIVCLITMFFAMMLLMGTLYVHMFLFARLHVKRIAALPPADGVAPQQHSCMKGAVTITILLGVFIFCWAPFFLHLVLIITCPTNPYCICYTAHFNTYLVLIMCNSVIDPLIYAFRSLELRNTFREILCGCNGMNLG
For assay [4], the target named is T1, MC4. Kind of assay: Test 3. cAMP stimulation, MC4. It is filed as cell-based. Conditions: response relative to α-MSH. On the procedure:
(§3) The stimulation of cAMP was carried out essentially as described by Schiöth et al, Br J Pharmacol 1998; 124; 75-82, however, the response is given relative to α-MSH.

The target of the next assay is MC1-receptor (Mus musculus, UniProt Q01727). Kind of assay: Test 1. Affinity for the MC1-receptor (I125-NDP-αMSH binding). As to conditions: I125-NDP-αMSH as ligand; read-out: Affinity for MC-receptors Ki MC1. From the text: Test 1. Affinity for the MC1-receptor
Chain of MC1-receptor (Q01727 whole entry): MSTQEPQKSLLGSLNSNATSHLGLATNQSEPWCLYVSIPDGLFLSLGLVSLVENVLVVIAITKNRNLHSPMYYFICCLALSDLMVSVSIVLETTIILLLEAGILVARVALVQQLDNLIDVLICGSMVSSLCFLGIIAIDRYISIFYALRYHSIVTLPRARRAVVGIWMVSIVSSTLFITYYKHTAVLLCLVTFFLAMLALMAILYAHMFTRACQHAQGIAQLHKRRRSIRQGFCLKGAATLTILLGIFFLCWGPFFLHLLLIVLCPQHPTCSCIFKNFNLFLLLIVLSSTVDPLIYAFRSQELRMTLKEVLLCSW
The binding assay was cared out essentially as described by Lunec et al, Melanoma Res 1992; 2; 5-12 using I^125-NDP-αMSH as ligand.

The target in the next assay is MC1 (Homo sapiens, UniProt Q01726). Description: Test 3. cAMP stimulation, MC1. It is filed as cell-based. As to conditions: response relative to α-MSH. The procedure:
as §3

In assay [5] the target is T3, MC3. Description: Test 3. cAMP stimulation, MC3. It is filed as cell-based. Conditions: response relative to α-MSH. On the procedure: as §3
The target of assay [6] is T2, MC5. Description: Test 3. cAMP stimulation, MC5. It is filed as cell-based. Conditions: response relative to α-MSH. On the procedure:
as §3

T1 sequence (P32245 whole entry): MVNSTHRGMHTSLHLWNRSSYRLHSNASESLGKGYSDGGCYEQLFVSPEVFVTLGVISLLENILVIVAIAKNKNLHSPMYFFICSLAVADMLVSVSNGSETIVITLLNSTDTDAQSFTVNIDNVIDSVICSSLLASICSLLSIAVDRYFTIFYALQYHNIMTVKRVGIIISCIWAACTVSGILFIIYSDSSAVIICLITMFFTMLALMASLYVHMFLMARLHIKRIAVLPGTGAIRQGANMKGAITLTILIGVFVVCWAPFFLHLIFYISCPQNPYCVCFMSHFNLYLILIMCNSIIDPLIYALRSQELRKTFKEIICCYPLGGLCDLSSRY
Chain of MC1 (Q01726 whole entry): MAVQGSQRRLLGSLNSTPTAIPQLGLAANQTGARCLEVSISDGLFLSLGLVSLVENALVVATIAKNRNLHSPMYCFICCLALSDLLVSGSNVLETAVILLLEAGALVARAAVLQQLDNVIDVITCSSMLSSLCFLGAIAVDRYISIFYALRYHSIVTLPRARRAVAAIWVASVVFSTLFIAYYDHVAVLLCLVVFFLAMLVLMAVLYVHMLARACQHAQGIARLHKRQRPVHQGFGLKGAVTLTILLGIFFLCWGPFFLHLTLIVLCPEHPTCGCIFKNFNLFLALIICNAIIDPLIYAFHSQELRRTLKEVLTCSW

Regarding `N=C(N)NN=Cc1cccn1-c1ccc(C(F)(F)F)cc1` [Compound 48, N-[(1-(4-Trifluoromethylphenyl)-1H-pyrrol-2-yl)methyleneamino]guanidine], the results for the Ki at MC4 [1] and on MC5 [2] were 0.07 µM and 7.8 µM, respectively.

As for `N=C(N)NN=Cc1cccn1-c1cc(Cl)cc(Cl)c1` [Compound 50, N-[(1-(3,5-dichlorophenyl)-1H-pyrrol-2-yl)methyleneamino]guanidine], the Ki (usually a dissociation constant, usually derived from enzyme kinetics or from competition with a known ligand) worked out at 12.8 µM on MC3 [3], 3.6 µM on MC4 [1] and 7.52 µM at MC5 [2]. Also, the “Influence on cAMP: cAMP agonist/plateau stim. α-MSH (%) MC4” value on MC4 [4] stood at 36%.

In the case of “N-{1-[(4-Chlorophenyl)-1H-Pyrrol-2-yl]methylene-amino}guanidine [Compound 1]”, the Ki on MC1-receptor came out at 0.42 µM; on MC3 [3], 15.6 µM; on MC4 [1], 5.1 µM; at MC5 [2], 17.5 µM. Besides, the “Influence on cAMP: cAMP agonist/plateau stim. α-MSH (%) MC1” value on MC1 is reported as 30%. Besides, the “Influence on cAMP: cAMP agonist/plateau stim. α-MSH (%) MC3” value on MC3 [5] worked out at 35%. For the same compound, on MC4 [4], the “Influence on cAMP: cAMP agonist/plateau stim. α-MSH (%) MC4” value came to 118%. The “Influence on cAMP: cAMP agonist/plateau stim. α-MSH (%) MC5” value on MC5 [6] came out at 6%.

Source of the values: patent US7442807B2, “N-phenylpyrrole guanidine derivatives as melanocortin receptor ligands” (Action Pharma A/S, priority 2001, dated 2008).
